{"source": "patent US4279912A", "about": "“Novel imidazoquinolines” (Roussel Uclaf, priority 1977, dated 1981)", "note": "Where a name gives a salt, the structure may show the parent alone.", "data": [{"tested_on": "Passive cutaneous anaphylaxis (PCA)", "experiment": "Passive cutaneous anaphylaxis (PCA) in rats", "type": "in vivo", "conditions": "Rattus norvegicus, read-out: ED50 (dose of drug giving 50% inhibition), i.v., intravenous dosing immediately prior to antigen/Evans blue challenge", "from_the_text": "(§1) Cutaneous anaphylaxis can be induced in rats by intradermal (ID) sensitization with antiserum followed three days later by systemic challenge with antigen. Evans blue dye injected with the antigen is used as a marker to assess the severity of the local response. Anti-allergic drugs inhibit this reaction. This method has been described by OVARY (1962) \"[…] Cutaneous Anaphylaxis in Allergology\" Page 358-367 Ed. Brown: Pergamon Press:-male rats weighing 180-220 grams are used in groups of seven. […] 1. Wash 120 grams of Al(OH)3 gel in 140 ml of saline (use of a macerater facilitates mixing). 2. Centrifuge at 3,000 r.p.m. for about 10 minutes. 3. Resuspend the precipitate with 300 ml of albumen egg powder (1.3 mg/ml) in saline and allow to stand for 30 minutes. 4. Centrifuge at 3,000 r.p.m. for 10 minutes. 5. Weigh the wet precipitate and to each gram weight add 1 ml of saline. Store in refrigerator (Quantity sufficient for 60 rats for a 3 day sensitization program). […] 1 ml of the alum precipitated ovalbumen was injected subcutaneously into rats weighing 180-220 grams on days 0,2,4. The rats were bled on day 14 either by cardiac puncture or via the dorsal abdominal aorta. Equal quantities of serum from each animal were pooled and thoroughly mixed and 2 ml aliquots were stored at -20° C. in plastic tubes. Serum Dilution for PCA The antiserum for sensitization was diluted so that an ID injection of 0.1 ml into control animals would give an average score of a single spot of between 2.0-3.5 using a 4 point scoring system. Method (A) SENSITIZATION: The rats were anaesthetized with Nembutal (40-60 mg/kg i.p.) and were then sensitized by four ID injections (0.1 ml each) on their shaved backs. The animals were then left for a period of three days to develop sensitization. (B) […]: The sensitized rats were dosed orally or intraveneously with the drug immediately prior to intraveneous challenge via the superficial penile vein with 1 ml of an antigen/Evans blue mixture (1 mg albumen egg powder in 0.5 ml saline plus 0.5 ml of 1% Evans blue). The injections were speeded up by using an automatic 1 ml self-filling glass syringe. The \"challenged\" rats were killed after 30 minutes, (usually pithed) and their skin on the dorsal surface was removed. The degree and area of blueing, proportional to the anaphylactic reaction was assessed on a four point scoring system. Calculations 1. Total scores for sites 1,2,3 and 4=X 2. Mean value of X for each group=X 3. X t=X for test group X c=X for control group [formula] 5. […] ED50 values for the compounds tested in the passive cutaneous anaphylaxis screen (in rats) are as follows: […]", "units": {"ED50": "mg/kg"}, "values": [{"smiles": "CC(C)Oc1cc2nc(C(=O)O)cn2c2cc(Cl)ccc12", "note": "[Example 18, 8-chloro-5-isopropoxyimidazo-[1,2-a]-quinoline-2-carboxylic acid]", "ED50": 0.027}, {"smiles": "COc1ccc2c(Cl)cc3nc(C(=O)O)cn3c2c1.Cl", "note": "[Example 16, 5-chloro-8-methoxyimidazo-[1,2-a]-quinoline-2-carboxylic acid hydrochloride]", "ED50": 0.016}, {"smiles": "O=C(O)c1cn2c(cc(Cl)c3ccc(Cl)cc32)n1", "note": "[Example 22, 5,8-dichloroimidazo-[1,2-a]-quinoline-2-carboxylic acid]", "ED50": 0.023}, {"smiles": "O=C(O)c1cn2c(cc(Br)c3ccccc32)n1", "note": "[Example 26, 5-bromoimidazo-[1,2-a]-quinoline-2-carboxylic acid]", "ED50": 0.046}, {"smiles": "COc1ccc2ccc3nc(C(=O)O)cn3c2c1", "note": "[Example 20, 8-methoxyimidazo-[1,2-a]-quinoline-2-carboxylic acid]", "ED50": 0.038}, {"smiles": "COc1cc2nc(C(=O)O)cn2c2ccccc12", "note": "[Example 4, THAM salt of 5-methoxyimidazo-[1,2-a]-quinoline-2-carboxylic acid]", "ED50": 0.57}, {"smiles": "O=C(OCCN1CCCCC1)c1cn2c(ccc3ccccc32)n1", "note": "[Example 35, 2-piperidinoethyl imidazo-[1,2-a]-quinoline-2-carboxylate]", "ED50": 0.42}, {"smiles": "O=C(O)c1cn2c(ccc3ccccc32)n1", "note": "[Example 2, imidazo-[1,2-a]-quinoline-2-carboxylic acid hydrochloride]", "ED50": 0.29}, {"smiles": "CC(C)Oc1cc2nc(C(=O)O)cn2c2ccccc12", "note": "[Example 8, 5-isopropoxyimidazo-[1,2-a]-quinoline-2-carboxylic acid hydrochloride]", "ED50": 0.12}, {"smiles": "O=C(O)c1cn2c(ccc3ccc(Cl)cc32)n1", "note": "[Example 10, sodium 8-chloroimidazo-[1,2-a]-quinoline-2-carboxylate]", "ED50": 0.069}, {"smiles": "O=C(O)c1cn2c(cc(Cl)c3ccc(Br)cc32)n1", "note": "[Example 32, 8-bromo-5-chloroimidazo-[1,2-a]-quinoline-2-carboxylic acid]", "ED50": 0.025}, {"smiles": "COc1ccc2c(ccc3nc(C(=O)O)cn32)c1", "note": "[Example 28, 7-methoxyimidazo-[1,2-a]-quinoline-2-carboxylic acid]", "ED50": 0.03}, {"smiles": "O=C(O)c1cn2c(cc(Cl)c3ccccc32)n1", "note": "[Example 6, 5-chloroimidazo-[1,2-a]-quinoline-2-carboxylic acid hydrochloride]", "ED50": 0.0075}, {"smiles": "COc1ccc2c(OC)cc3nc(C(=O)O)cn3c2c1", "note": "[Example 12, 5,8-dimethoxyimidazo-[1,2-a]-quinoline-2-carboxylic acid]", "ED50": 1.22}, {"smiles": "O.O=C(O)c1cn2c(ccc3cc(Cl)ccc32)n1", "note": "[Example 24, 7-chloroimidazo-[1,2-a]-quinoline-2-carboxylic acid monohydrate]", "ED50": 0.29}, {"smiles": "COc1ccc2c(OC(C)C)cc3nc(C(=O)O)cn3c2c1", "note": "[Example 14, 8-methoxy-5-isopropoxyimidazo-[1,2-a]-quinoline-2-carboxylic acid]", "ED50": 0.091}]}, {"tested_on": "Passive cutaneous anaphylaxis (PCA)", "experiment": "Passive cutaneous anaphylaxis (PCA) in rats", "type": "in vivo", "conditions": "Rattus norvegicus, read-out: ED50 (dose of drug giving 50% inhibition), p.o., oral dosing immediately prior to antigen/Evans blue challenge", "from_the_text": "as §1", "units": {"ED50": "mg/kg"}, "values": [{"smiles": "CCOC(=O)c1cn2c(cc(Cl)c3ccccc32)n1", "note": "[Example 5, ethyl 5-chloroimidazo-[1,2-a]-quinoline-2-carboxylate]", "ED50": 0.096}, {"smiles": "CC(C)Oc1cc2nc(C(=O)O)cn2c2cc(Cl)ccc12", "note": "[Example 18, 8-chloro-5-isopropoxyimidazo-[1,2-a]-quinoline-2-carboxylic acid]", "ED50": 0.34}, {"smiles": "CCOC(=O)c1cn2c(ccc3ccc(Cl)cc32)n1", "note": "[Example 9, ethyl 8-chloroimidazo-[1,2-a]-quinoline-2-carboxylate]", "ED50": 1.72}, {"smiles": "COc1ccc2c(Cl)cc3nc(C(=O)O)cn3c2c1.Cl", "note": "[Example 16, 5-chloro-8-methoxyimidazo-[1,2-a]-quinoline-2-carboxylic acid hydrochloride]", "ED50": 0.27}, {"smiles": "O=C(O)c1cn2c(cc(Cl)c3ccc(Cl)cc32)n1", "note": "[Example 22, 5,8-dichloroimidazo-[1,2-a]-quinoline-2-carboxylic acid]", "ED50": 0.033}, {"smiles": "O=C(O)c1cn2c(cc(Br)c3ccccc32)n1", "note": "[Example 26, 5-bromoimidazo-[1,2-a]-quinoline-2-carboxylic acid]", "ED50": 0.14}, {"smiles": "COc1ccc2ccc3nc(C(=O)O)cn3c2c1", "note": "[Example 20, 8-methoxyimidazo-[1,2-a]-quinoline-2-carboxylic acid]", "ED50": 0.14}, {"smiles": "COc1cc2nc(C(=O)O)cn2c2ccccc12", "note": "[Example 4, THAM salt of 5-methoxyimidazo-[1,2-a]-quinoline-2-carboxylic acid]", "ED50": 3.74}, {"smiles": "O=C(O)c1cn2c(ccc3ccccc32)n1", "note": "[Example 2, imidazo-[1,2-a]-quinoline-2-carboxylic acid hydrochloride]", "ED50": 0.63}, {"smiles": "CC(C)Oc1cc2nc(C(=O)O)cn2c2ccccc12", "note": "[Example 8, 5-isopropoxyimidazo-[1,2-a]-quinoline-2-carboxylic acid hydrochloride]", "ED50": 1.13}, {"smiles": "O=C(O)c1cn2c(ccc3ccc(Cl)cc32)n1", "note": "[Example 10, sodium 8-chloroimidazo-[1,2-a]-quinoline-2-carboxylate]", "ED50": 0.11}, {"smiles": "O=C(O)c1cn2c(cc(Cl)c3ccc(Br)cc32)n1", "note": "[Example 32, 8-bromo-5-chloroimidazo-[1,2-a]-quinoline-2-carboxylic acid]", "ED50": 0.08}, {"smiles": "O=C(O)c1cn2c(cc(Cl)c3ccccc32)n1", "note": "[Example 6, 5-chloroimidazo-[1,2-a]-quinoline-2-carboxylic acid hydrochloride]", "ED50": 0.47}, {"smiles": "COc1ccc2c(OC(C)C)cc3nc(C(=O)O)cn3c2c1", "note": "[Example 14, 8-methoxy-5-isopropoxyimidazo-[1,2-a]-quinoline-2-carboxylic acid]", "ED50": "~10"}]}]}
